Six molecules from US20220323406A1, “METHODS AND COMPOSITIONS FOR DIFFERENTIATING STEM CELLS” (Massachusetts Institute of Technology, priority 2019, published 2022) can be followed below.

The test system of experiment [1] is ENR+CD organoids (ISC to Paneth cell differentiation). Briefly: Primary screen: basal (non-stimulated) lysozyme secretion LYZ.NS, 2.5-D 384-well ENR+CD organoid differentiation. It is filed as cell-based, mouse. The source says: (§1) High-throughput screening.
Experiment [2] shares this test system. Briefly: Primary screen: CCh-stimulated lysozyme secretion LYZ.S, 2.5-D 384-well ENR+CD organoid differentiation. It is filed as cell-based, mouse. The following applies: primary screen.
Text: as §1

Another experiment has as its system ENR+CD organoids. As to the kind of experiment: Primary screen: ATP (CellTiter-Glo 3D, CTG) cell number/viability, 2.5-D 384-well ENR+CD organoids.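 Note: compounds given at plating and again on day 3 over a 6-day differentiation from ENR+CV stem-cell-enriched precursors, ATP measured on day 6, plate median as control.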 Background: Cellular ATP, detected with luciferase, serves as a proxy for viable cell number.
The mark [3] stands for this setting: primary screen, standard z score, dose 0.08 uM.
The mark [4] stands for this setting: primary screen, standard z score, dose 0.40 uM.
[5] abbreviates: primary screen, standard z score, dose 2.00 uM.
Where [6] appears, read: primary screen, standard z score, dose 10.00 uM.
Setting [7] is: primary screen, dose 0.08 uM, FC relative to plate median.
Setting [8] is: primary screen, dose 0.08 uM, standard z score.
[9] abbreviates: primary screen, dose 0.40 uM, FC relative to plate median.
The mark [10] stands for this setting: primary screen, dose 0.40 uM, standard z score.
The mark [11] stands for this setting: primary screen, dose 2.00 uM, FC relative to plate median.
[12] abbreviates: primary screen, dose 2.00 uM, standard z score.
[13] abbreviates: primary screen, dose 10.00 uM, FC relative to plate median.
Where [14] appears, read: primary screen, dose 10.00 uM, standard z score.

With `C[C@]12C=CC(=O)N[C@@H]1CC[C@@H]1[C@@H]2CC[C@]2(C)[C@@H](C(=O)Nc3cc(C(F)(F)F)ccc3C(F)(F)F)CC[C@@H]12` [Dutasteride], the Dose.FC.LYZ.NS in experiment [1] (primary screen, dose 0.08 uM) was 0.065 log2 fold change; in experiment [1] (primary screen, dose 0.40 uM) it was 0.006 log2 fold change; in experiment [1] (primary screen, dose 2.00 uM) it was −0.105 log2 fold change; in experiment [1] (primary screen, dose 10.00 uM) it was −0.092 log2 fold change. Besides, the Z.LYZ.NS in experiment [1] (setting [3]) was 0.568; in experiment [1] (setting [4]), 0.052; in experiment [1] (setting [5]), −0.915; in experiment [1] (setting [6]), −0.799. The Dose.FC.LYZ.S in experiment [2] (dose 0.08 uM) is reported as 0.001 log2 fold change; in experiment [2] (dose 0.40 uM) it was −0.054 log2 fold change; in experiment [2] (dose 2.00 uM), −0.074 log2 fold change; in experiment [2] (dose 10.00 uM) it was −0.151 log2 fold change. The Dose.FC.CTG is 0.057 log2 fold change in the experiment with ENR+CD organoids (primary screen, dose 0.08 uM); −0.266 log2 fold change with ENR+CD organoids (primary screen, dose 0.40 uM); −0.098 log2 fold change in the experiment on ENR+CD organoids (primary screen, dose 2.00 uM); −0.057 log2 fold change in the experiment on ENR+CD organoids (primary screen, dose 10.00 uM).
`CCCCCCCCCCCC1=C(O)C(=O)C=C(O)C1=O` [Embelin]: the Dose.FC.LYZ.NS is on record as −0.015 log2 fold change in experiment [1] (primary screen, dose 0.08 uM); −0.082 log2 fold change in experiment [1] (primary screen, dose 0.40 uM); −0.055 log2 fold change in experiment [1] (primary screen, dose 2.00 uM); −0.094 log2 fold change in experiment [1] (primary screen, dose 10.00 uM). The Z.LYZ.NS was −0.129 in experiment [1] (setting [3]), −0.712 in experiment [1] (setting [4]), −0.482 in experiment [1] (setting [5]) and −0.819 in experiment [1] (setting [6]). The Dose.FC.LYZ.S is listed as −0.034 log2 fold change in experiment [2] (dose 0.08 uM), −0.122 log2 fold change in experiment [2] (dose 0.40 uM), −0.111 log2 fold change in experiment [2] (dose 2.00 uM) and −0.119 log2 fold change in experiment [2] (dose 10.00 uM). Also, the Dose.FC.CTG in the experiment with ENR+CD organoids (primary screen, dose 0.08 uM) is −0.323 log2 fold change; in the experiment with ENR+CD organoids (primary screen, dose 0.40 uM), −0.723 log2 fold change; in the experiment on ENR+CD organoids (primary screen, dose 2.00 uM), −0.325 log2 fold change; with ENR+CD organoids (primary screen, dose 10.00 uM), −0.720 log2 fold change.
`COc1cc(OC2CCN(C)CC2)ccc1Nc1ncc2c(n1)n(C1CCCC1)c(=O)n2C` [AZ 3146]: the Dose.FC.LYZ.NS in experiment [1] (primary screen, dose 0.08 uM) is listed as 0.073 log2 fold change; in experiment [1] (primary screen, dose 0.40 uM), −0.038 log2 fold change; in experiment [1] (primary screen, dose 2.00 uM), −0.079 log2 fold change; in experiment [1] (primary screen, dose 10.00 uM), −0.281 log2 fold change. In addition, the “Z.LYZ.NS (standard z score)” value in experiment [1] (primary screen, dose 0.08 uM) is recorded as 0.639; in experiment [1] (primary screen, dose 0.40 uM) it was −0.327; in experiment [1] (primary screen, dose 2.00 uM) it was −0.687; in experiment [1] (primary screen, dose 10.00 uM) it was −2.447. Moreover, the Dose.FC.LYZ.S is 0.049 log2 fold change in experiment [2] (dose 0.08 uM), −0.067 log2 fold change in experiment [2] (dose 0.40 uM), −0.130 log2 fold change in experiment [2] (dose 2.00 uM) and −0.422 log2 fold change in experiment [2] (dose 10.00 uM). In addition, the Dose.FC.CTG in the experiment with ENR+CD organoids (primary screen, dose 0.08 uM) is reported as −0.130 log2 fold change; with ENR+CD organoids (primary screen, dose 0.40 uM) it was −0.262 log2 fold change; in the experiment with ENR+CD organoids (primary screen, dose 2.00 uM), −0.369 log2 fold change; in the experiment with ENR+CD organoids (primary screen, dose 10.00 uM), −1.168 log2 fold change. For the same molecule, the “Z.CTG (standard z score)” value is on record as −0.310 with ENR+CD organoids (primary screen, dose 0.08 uM); −0.626 with ENR+CD organoids (primary screen, dose 0.40 uM); −0.881 in the experiment with ENR+CD organoids (primary screen, dose 2.00 uM); −2.789 in the experiment with ENR+CD organoids (primary screen, dose 10.00 uM).
In the case of `O=C(O[C@H]1C[C@H]2CC[C@@H](C1)[N+]21CCCC1)C(O)(c1ccccc1)c1ccccc1` [Trospium chloride], the Dose.FC.LYZ.NS in experiment [1] (primary screen, dose 0.08 uM) is reported as 0.169 log2 fold change; in experiment [1] (primary screen, dose 0.40 uM), 0.218 log2 fold change; in experiment [1] (primary screen, dose 2.00 uM) it was −0.002 log2 fold change; in experiment [1] (primary screen, dose 10.00 uM) it was 0.102 log2 fold change. The “Z.LYZ.NS (standard z score)” value is recorded as 1.470 in experiment [1] (primary screen, dose 0.08 uM); 1.895 in experiment [1] (primary screen, dose 0.40 uM); −0.017 in experiment [1] (primary screen, dose 2.00 uM); 0.885 in experiment [1] (primary screen, dose 10.00 uM). For the same molecule, the Dose.FC.LYZ.S in experiment [2] (dose 0.08 uM) is 0.119 log2 fold change; in experiment [2] (dose 0.40 uM), 0.117 log2 fold change; in experiment [2] (dose 2.00 uM), −0.008 log2 fold change; in experiment [2] (dose 10.00 uM), 0.084 log2 fold change. Moreover, the Dose.FC.CTG with ENR+CD organoids (primary screen, dose 0.08 uM) is recorded as 0.083 log2 fold change; in the experiment with ENR+CD organoids (primary screen, dose 0.40 uM), −0.031 log2 fold change; with ENR+CD organoids (primary screen, dose 2.00 uM), 0.200 log2 fold change; with ENR+CD organoids (primary screen, dose 10.00 uM), 0.148 log2 fold change.
`CNC(=O)c1ccccc1Nc1nc(Nc2ccc(N3CCOCC3)cc2OC)ncc1Cl` [TAE226 (NVP-TAE226)]: the Dose.FC.LYZ.NS is recorded as −0.256 log2 fold change in experiment [1] (setting [7]), −0.304 log2 fold change in experiment [1] (setting [9]), −0.323 log2 fold change in experiment [1] (setting [11]) and −0.292 log2 fold change in experiment [1] (setting [13]). For the same molecule, the Z.LYZ.NS in experiment [1] (setting [8]) is listed as −2.226; in experiment [1] (setting [10]), −2.650; in experiment [1] (setting [12]), −2.813; in experiment [1] (setting [14]), −2.545. Moreover, the Dose.FC.LYZ.S in experiment [2] (dose 0.08 uM, FC relative to plate median) is listed as −0.333 log2 fold change; in experiment [2] (dose 0.40 uM, FC relative to plate median) it was −0.376 log2 fold change; in experiment [2] (dose 2.00 uM, FC relative to plate median), −0.400 log2 fold change; in experiment [2] (dose 10.00 uM, FC relative to plate median), −0.426 log2 fold change. The Dose.FC.CTG was −0.472 log2 fold change in the experiment with ENR+CD organoids (setting [7]), −1.126 log2 fold change in the experiment on ENR+CD organoids (setting [9]), −1.284 log2 fold change in the experiment on ENR+CD organoids (setting [11]) and −0.989 log2 fold change in the experiment with ENR+CD organoids (setting [13]). Also, the Z.CTG in the experiment with ENR+CD organoids (setting [8]) is on record as −1.127; in the experiment on ENR+CD organoids (setting [10]), −2.689; in the experiment with ENR+CD organoids (setting [12]), −3.068; in the experiment on ENR+CD organoids (setting [14]) it was −2.363.
In the case of `CC(C)C[C@H](NC(=O)[C@@H](NC(=O)c1cccc(-c2ccccc2)n1)[C@@H](C)O)B(O)O` [CEP-18770 (Delanzomib)], the Dose.FC.LYZ.NS in experiment [1] (primary screen, dose 0.08 uM) was −0.108 log2 fold change; in experiment [1] (primary screen, dose 0.40 uM), −0.076 log2 fold change; in experiment [1] (primary screen, dose 2.00 uM), −0.063 log2 fold change; in experiment [1] (primary screen, dose 10.00 uM), −0.035 log2 fold change. In addition, the Z.LYZ.NS in experiment [1] (setting [3]) was −0.937; in experiment [1] (setting [4]), −0.664; in experiment [1] (setting [5]), −0.546; in experiment [1] (setting [6]) it was −0.308. The Dose.FC.LYZ.S in experiment [2] (dose 0.08 uM) is recorded as −0.179 log2 fold change; in experiment [2] (dose 0.40 uM) it was −0.159 log2 fold change; in experiment [2] (dose 2.00 uM), −0.180 log2 fold change; in experiment [2] (dose 10.00 uM), −0.149 log2 fold change. Further, the Dose.FC.CTG is −0.953 log2 fold change in the experiment with ENR+CD organoids (primary screen, dose 0.08 uM); −1.642 log2 fold change in the experiment with ENR+CD organoids (primary screen, dose 0.40 uM); −0.990 log2 fold change with ENR+CD organoids (primary screen, dose 2.00 uM); −1.148 log2 fold change in the experiment on ENR+CD organoids (primary screen, dose 10.00 uM). In addition, the Z.CTG is given as −2.276 in the experiment with ENR+CD organoids (setting [3]), −3.923 with ENR+CD organoids (setting [4]), −2.364 in the experiment with ENR+CD organoids (setting [5]) and −2.742 in the experiment with ENR+CD organoids (setting [6]).
